# Assay results: patent US9006235B2, “Inhibitors of human immunodeficiency virus replication” (priority 2012, dated 2015)
# System: recombinant NL-Rluc virus
# Assay: Inhibition of HIV replication (NL-Rluc virus, luciferase readout in MT-2 cells)
# Format: cell-based
# Details: Human immunodeficiency virus 1, MT2, 120 h
row,SMILES,EC50 [nM]
1,"COc1ccc(C(=O)Nc2cc3nc(C)c([C@H](OC(C)(C)C)C(=O)O)c(-c4cc(F)c5c(c4C)CCCO5)n3n2)cc1OC [Example 15, (2S)-2-tert-butoxy-2-(2-(3,4-dimethoxybenzamido)-7-(8-fluoro-5-methylchroman-6-yl)-5-methylpyrazolo[1,5-a]pyrimidin-6-yl)acetic acid]",260
2,"Cc1nc2cc(NC(=O)OCc3ccccc3)nn2c(-c2cc(F)c3c(c2C)CCCO3)c1[C@H](OC(C)(C)C)C(=O)O [Example 33, (2S)-2-(2-(((benzyloxy)carbonyl)amino)-7-(8-fluoro-5-methylchroman-6-yl)-5-methylpyrazolo[1,5-a]pyrimidin-6-yl)-2-(tert-butoxy)acetic acid]",60
3,"Cc1nc2cc(NC(=O)Cc3ccccc3)nn2c(-c2cc(F)c3c(c2C)CCCO3)c1[C@H](OC(C)(C)C)C(=O)O [Example 4, (2S)-2-tert-butoxy-2-(7-(8-fluoro-5-methylchroman-6-yl)-5-methyl-2-(2-phenylacetamido)pyrazolo[1,5-a]pyrimidin-6-yl)acetic acid]",120
4,"Cc1nc2cc(NCCCc3ccccc3)nn2c(-c2cc(F)c3c(c2C)CCCO3)c1[C@H](OC(C)(C)C)C(=O)O [Example 41, (2S)-2-(tert-butoxy)-2-(7-(8-fluoro-5-methylchroman-6-yl)-5-methyl-2-((3-phenylpropyl)amino)pyrazolo[1,5-a]pyrimidin-6-yl)acetic acid]",50
5,"Cc1nc2cc(NC(=O)Cc3ccc(F)cc3)nn2c(-c2cc(F)c3c(c2C)CCCO3)c1[C@H](OC(C)(C)C)C(=O)O [Example 3, (2S)-2-tert-butoxy-2-(7-(8-fluoro-5-methylchroman-6-yl)-2-(2-(4-fluorophenyl)acetamido)-5-methylpyrazolo[1,5-a]pyrimidin-6-yl)acetic acid]",80

# Same assay, conditions: Human immunodeficiency virus 1, MT2, 120 h, read-out: Activity
row,SMILES,EC50 [nM]
1,"Cc1nc2cc(NC3CCCC3)nn2c(-c2cc(F)c3c(c2C)CCCO3)c1[C@H](OC(C)(C)C)C(=O)O [Example 49, (2S)-2-(tert-butoxy)-2-(2-(cyclopentylamino)-7-(8-fluoro-5-methylchroman-6-yl)-5-methylpyrazolo[1,5-a]pyrimidin-6-yl)acetic acid]",100 to 1000
2,"Cc1nc2cc(NC(=O)CCC3CCCCC3)nn2c(-c2cc(F)c3c(c2C)CCCO3)c1[C@H](OC(C)(C)C)C(=O)O [Example 28, (2S)-2-tert-butoxy-2-(2-(3-cyclohexylpropanamido)-7-(8-fluoro-5-methylchroman-6-yl)-5-methylpyrazolo[1,5-a]pyrimidin-6-yl)acetic acid]",< 100
3,"COc1ccc(C(=O)Nc2cc3nc(C)c([C@H](OC(C)(C)C)C(=O)O)c(-c4cc(F)c5c(c4C)CCCO5)n3n2)cc1OC [Example 15, (2S)-2-tert-butoxy-2-(2-(3,4-dimethoxybenzamido)-7-(8-fluoro-5-methylchroman-6-yl)-5-methylpyrazolo[1,5-a]pyrimidin-6-yl)acetic acid]",100 to 1000
4,"Cc1nc2cc(NC(=O)OCc3ccccc3)nn2c(-c2cc(F)c3c(c2C)CCCO3)c1[C@H](OC(C)(C)C)C(=O)O [Example 33, (2S)-2-(2-(((benzyloxy)carbonyl)amino)-7-(8-fluoro-5-methylchroman-6-yl)-5-methylpyrazolo[1,5-a]pyrimidin-6-yl)-2-(tert-butoxy)acetic acid]",< 100
5,"Cc1nc2cc(NC(=O)Cc3ccccc3)nn2c(-c2cc(F)c3c(c2C)CCCO3)c1[C@H](OC(C)(C)C)C(=O)O [Example 4, (2S)-2-tert-butoxy-2-(7-(8-fluoro-5-methylchroman-6-yl)-5-methyl-2-(2-phenylacetamido)pyrazolo[1,5-a]pyrimidin-6-yl)acetic acid]",100 to 1000
6,"Cc1nc2cc(NC(=O)CCCCCC(C)(C)C)nn2c(-c2cc(F)c3c(c2C)CCCO3)c1[C@H](OC(C)(C)C)C(=O)O [Example 20, (2S)-2-tert-butoxy-2-(2-(7,7-dimethyloctanamido)-7-(8-fluoro-5-methylchroman-6-yl)-5-methylpyrazolo[1,5-a]pyrimidin-6-yl)acetic acid]",< 100
7,"Cc1nc2cc(NC(=O)c3ccc4c(c3)-c3ccccc3C4=O)nn2c(-c2cc(F)c3c(c2C)CCCO3)c1[C@H](OC(C)(C)C)C(=O)O [Example 18, (2S)-2-tert-butoxy-2-(7-(8-fluoro-5-methylchroman-6-yl)-5-methyl-2-(9-oxo-9H-fluorene-3-carboxamido)pyrazolo[1,5-a]pyrimidin-6-yl)acetic acid]",100 to 1000
8,"Cc1nc2cc(NC(=O)C(Oc3ccccc3)C(C)C)nn2c(-c2cc(F)c3c(c2C)CCCO3)c1[C@H](OC(C)(C)C)C(=O)O (mixture of isomers) [Example 24, (2S)-2-tert-butoxy-2-(7-(8-fluoro-5-methylchroman-6-yl)-5-methyl-2-(3-methyl-2-phenoxybutanamido)pyrazolo[1,5-a]pyrimidin-6-yl)acetic acid]",< 100
9,"Cc1nc2cc(N(C)CCCC3CCCC3)nn2c(-c2cc(F)c3c(c2C)CCCO3)c1[C@H](OC(C)(C)C)C(=O)O [Example 52, (2S)-2-(tert-butoxy)-2-(2-((3-cyclopentylpropyl)(methyl)amino)-7-(8-fluoro-5-methylchroman-6-yl)-5-methylpyrazolo[1,5-a]pyrimidin-6-yl)acetic acid]",< 100
10,"Cc1nc2cc(NC(=O)COCc3ccccc3)nn2c(-c2cc(F)c3c(c2C)CCCO3)c1[C@H](OC(C)(C)C)C(=O)O [Example 9, (2S)-2-(2-(2-(benzyloxy)acetamido)-7-(8-fluoro-5-methylchroman-6-yl)-5-methylpyrazolo[1,5-a]pyrimidin-6-yl)-2-tert-butoxyacetic acid]",< 100
11,"Cc1nc2cc(NC(=O)CCC3CCCC3)nn2c(-c2cc(F)c3c(c2C)CCCO3)c1[C@H](OC(C)(C)C)C(=O)O [Example 2, (2S)-2-tert-butoxy-2-(2-(3-cyclopentylpropanamido)-7-(8-fluoro-5-methylchroman-6-yl)-5-methylpyrazolo[1,5-a]pyrimidin-6-yl)acetic acid]",< 100
12,"Cc1nc2cc(NCCCc3ccccc3)nn2c(-c2cc(F)c3c(c2C)CCCO3)c1[C@H](OC(C)(C)C)C(=O)O [Example 41, (2S)-2-(tert-butoxy)-2-(7-(8-fluoro-5-methylchroman-6-yl)-5-methyl-2-((3-phenylpropyl)amino)pyrazolo[1,5-a]pyrimidin-6-yl)acetic acid]",< 100
13,"Cc1nc2cc(NCCC(C)(C)C)nn2c(-c2cc(F)c3c(c2C)CCCO3)c1[C@H](OC(C)(C)C)C(=O)O [Example 45, (2S)-2-(tert-butoxy)-2-(2-((3,3-dimethylbutyl)amino)-7-(8-fluoro-5-methylchroman-6-yl)-5-methylpyrazolo[1,5-a]pyrimidin-6-yl)acetic acid]",< 100
14,"Cc1nc2cc(N3CCCC3)nn2c(-c2cc(F)c3c(c2C)CCCO3)c1[C@H](OC(C)(C)C)C(=O)O [Example 51, (2S)-2-(tert-butoxy)-2-(7-(8-fluoro-5-methylchroman-6-yl)-5-methyl-2-(pyrrolidin-1-yl)pyrazolo[1,5-a]pyrimidin-6-yl)acetic acid]",100 to 1000
15,"Cc1ccc(NC(=O)Nc2cc3nc(C)c([C@H](OC(C)(C)C)C(=O)O)c(-c4cc(F)c5c(c4C)CCCO5)n3n2)cc1 [Example 37, (2S)-2-(tert-butoxy)-2-(7-(8-fluoro-5-methylchroman-6-yl)-5-methyl-2-(3-(p-tolyl)ureido)pyrazolo[1,5-a]pyrimidin-6-yl)acetic acid]",< 100
16,"Cc1nc2cc(NC(=O)Cc3ccc(Cl)c(Cl)c3)nn2c(-c2cc(F)c3c(c2C)CCCO3)c1[C@H](OC(C)(C)C)C(=O)O [Example 26, (2S)-2-tert-butoxy-2-(2-(2-(3,4-dichlorophenyl)acetamido)-7-(8-fluoro-5-methylchroman-6-yl)-5-methylpyrazolo[1,5-a]pyrimidin-6-yl)acetic acid]",< 100
17,"CCCCOC(=O)Nc1cc2nc(C)c([C@H](OC(C)(C)C)C(=O)O)c(-c3cc(F)c4c(c3C)CCCO4)n2n1 [Example 34, (2S)-2-(tert-butoxy)-2-(2-((butoxycarbonyl)amino)-7-(8-fluoro-5-methylchroman-6-yl)-5-methylpyrazolo[1,5-a]pyrimidin-6-yl)acetic acid]",< 100
18,"CCCCCC(=O)Nc1cc2nc(C)c([C@H](OC(C)(C)C)C(=O)O)c(-c3cc(F)c4c(c3C)CCCO4)n2n1 [Example 17, (2S)-2-tert-butoxy-2-(7-(8-fluoro-5-methylchroman-6-yl)-2-hexanamido-5-methylpyrazolo[1,5-a]pyrimidin-6-yl)acetic acid]",< 100
19,"Cc1nc2cc(NCCC(C)C)nn2c(-c2cc(F)c3c(c2C)CCCO3)c1[C@H](OC(C)(C)C)C(=O)O [Example 43, (2S)-2-(tert-butoxy)-2-(7-(8-fluoro-5-methylchroman-6-yl)-2-(isopentylamino)-5-methylpyrazolo[1,5-a]pyrimidin-6-yl)acetic acid]",< 100
20,"COc1cccc(C(=O)Nc2cc3nc(C)c([C@H](OC(C)(C)C)C(=O)O)c(-c4cc(F)c5c(c4C)CCCO5)n3n2)c1 [Example 6, (2S)-2-tert-butoxy-2-(7-(8-fluoro-5-methylchroman-6-yl)-2-(3-methoxybenzamido)-5-methylpyrazolo[1,5-a]pyrimidin-6-yl)acetic acid]",< 100
21,"Cc1nc2cc(NC(=O)COC3C[C@@H](C)CC[C@@H]3C(C)C)nn2c(-c2cc(F)c3c(c2C)CCCO3)c1[C@H](OC(C)(C)C)C(=O)O (stereo partly drawn) [Example 13, (2S)-2-tert-butoxy-2-(7-(8-fluoro-5-methylchroman-6-yl)-2-(2-((2R,5S)-2-isopropyl-5-methylcyclohexyloxy)acetamido)-5-methylpyrazolo[1,5-a]pyrimidin-6-yl)acetic acid]",< 100
22,"Cc1nc2cc(NC(=O)CC3CCCC3)nn2c(-c2cc(F)c3c(c2C)CCCO3)c1[C@H](OC(C)(C)C)C(=O)O [Example 21, (2S)-2-tert-butoxy-2-(2-(2-cyclopentylacetamido)-7-(8-fluoro-5-methylchroman-6-yl)-5-methylpyrazolo[1,5-a]pyrimidin-6-yl)acetic acid]",< 100
23,"Cc1nc2cc(NC(=O)CCc3ccccc3)nn2c(-c2cc(F)c3c(c2C)CCCO3)c1[C@H](OC(C)(C)C)C(=O)O [Example 16, (2S)-2-tert-butoxy-2-(7-(8-fluoro-5-methylchroman-6-yl)-5-methyl-2-(3-phenylpropanamido)pyrazolo[1,5-a]pyrimidin-6-yl)acetic acid]",100 to 1000
24,"COc1cc(C(=O)Nc2cc3nc(C)c([C@H](OC(C)(C)C)C(=O)O)c(-c4cc(F)c5c(c4C)CCCO5)n3n2)cc(OC)c1OC [Example 29, (2S)-2-tert-butoxy-2-(7-(8-fluoro-5-methylchroman-6-yl)-5-methyl-2-(3,4,5-trimethoxybenzamido)pyrazolo[1,5-a]pyrimidin-6-yl)acetic acid]",100 to 1000
25,"Cc1nc2cc(NC(=O)Cc3ccc(F)cc3)nn2c(-c2cc(F)c3c(c2C)CCCO3)c1[C@H](OC(C)(C)C)C(=O)O [Example 3, (2S)-2-tert-butoxy-2-(7-(8-fluoro-5-methylchroman-6-yl)-2-(2-(4-fluorophenyl)acetamido)-5-methylpyrazolo[1,5-a]pyrimidin-6-yl)acetic acid]",< 100
